Measurements: paper PMC6805555, “Characterization of resistance to a potent D-peptide HIV entry inhibitor” (Retrovirology, 2019)

Assays:
[1] = system: IZN36 Q577R (gp41 N-peptide mimic); assay type: binding, HIV-1 (HXB2 strain); conditions: Q577R vs. WT IZN36
Description: A Q577R mutant version was generated via site-directed mutagenesis using the QuikChange® protocol (Stratagene). […] The cysteine residues of these constructs were biotinylated for SPR.
Protein interaction analysis was carried out on a Biacore 3000 (GE Healthcare). Analyses were performed in triplicate at 25 °C in sterile-filtered and degassed Gibco® PBS pH 7.4 (Invitrogen) supplemented with 0.005% P20 and 1 mg/mL BSA at a flow rate of 50 μL/min. First, streptavidin (Pierce) was immobilized on CM5 chips (GE Healthcare) using the Amine Coupling Kit (GE Healthcare) following a standard coupling protocol [36]. […] Injections were performed for 1 min using KINJECT. Dissociation was monitored for 2 min, followed by a 20 μL injection (QUICKINJECT) of running buffer followed by EXTRACLEAN. Sensorgrams were processed using Scrubber2 (BioLogic Software), and data were analyzed with Prism 5.0 (GraphPad Software). The equilibrium binding data were fit using the built-in saturation binding model (one site—specific binding), normalized to Bmax, and replotted as concentration of analyte vs. % capacity.

[2] = system: HIV-1 HXB2 Env Q577R pseudotyped HIV-1; assay type: cell-based; conditions: for C-peptide inhibition of Q577R compared to WT pseudoviruses: in words
Description: (§1) Supplementary file 12977_2019_489_MOESM3_ESM.pdf: Additional file 3. Effect of Q577R on C-peptide Inhibitors. Single-cycle viral infectivity assays in which HIV-1 HXB2 Env (WT and Q577R) pseudotyped HIV-1 with a luciferase reporter was used to infect HOS-LES cells in the absence or presence of six fivefold dilutions of the indicated C-peptide (in quadruplicate). The data are the average of two experiments with the standard deviation in parentheses.

[3] = system: enfuvirtide resistance mutations in HIV-1; conditions: next-generation L-peptide fusion inhibitors; cited from earlier work
Description: The remarkable conservation of this gp41 hydrophobic pocket target is indicative of its critical roles in the viral life cycle and impedes the ability of the virus to combat inhibitors that target it. The region of the HIV-1 genome encoding the pocket is conserved at both the protein level (for the role of gp41 in membrane fusion during viral entry) and nucleotide level (due to a structured RNA region in the critical Rev-response element). The only FDA-approved HIV fusion inhibitor, enfuvirtide (Fuzeon), is an L-peptide derived from the gp41 C-peptide region that targets the gp41 N-trime ...

[4] = system: HIV-1 HXB2 Env WT pseudotyped HIV-1; assay type: cell-based; conditions: HXB2 Env WT pseudotyped HIV-1, luciferase reporter, HOS-LES cells, six fivefold dilutions in quadruplicate; average of two experiments (SD)
Description: as §1

HIV-1 = conditions: in vitro and in vivo; cited from earlier work
Description: The remarkable conservation of this gp41 hydrophobic pocket target is indicative of its critical roles in the viral life cycle and impedes the ability of the virus to combat inhibitors that target it. The region of the HIV-1 genome encoding the pocket is conserved at both the protein level (for the role of gp41 in membrane fusion during viral entry) and nucleotide level (due to a structured RNA region in the critical Rev-response element). The only FDA-approved HIV fusion inhibitor, enfuvirtide (Fuzeon), is an L-peptide derived from the gp41 C-peptide region that targets the gp41 N-trime ... || Q577R has also been identified in viral resistance screens against other HIV-1 entry inhibitors that target the prehairpin intermediate. Against N-trimer peptides N44, N36, and IZN36, the C-peptide T2635, and the retrocyclin RC-101, Q577R is found in some or all of the resistant viruses and always accompanied by other gp41 mutation(s). By itself, Q577R provided only modest resistance to the N-trimer and C-peptide inhibitors (< threefold). Viral escape from a recently identified adnectin, 6200_A08, which similarly targets the gp41 hydrophobic pocket, ...

HIV-1 strain NL4-3 = conditions: similar passaging studies; cited from earlier work
Description: This extremely high affinity for the transiently exposed gp41 trimer provides a reserve of binding energy (resistance capacitor) to prevent the viral resistance pathway of stepwise accumulation of modest affinity-disrupting mutations. Such modest mutations would not affect PIE12-trimer potency and therefore not confer a selective advantage. Viral pa ... || We previously reported the selection of HIV-1 populations resistant to PIE12-trimer by passaging the lab-adapted NL4-3 strain in the presence of escalating suboptimal (partially inhibiting) concentrations of inhibitor, starting with 1 nM. Ultimately, PIE12-trimer resistant virus propagating in 320 nM PIE12-trimer was obtained after 65 weeks of passaging. Duplicate selections yielded two highly resistant polyclonal viral pools (W1 and W2). As previously reported, similar passaging studies with enfuvirtide led to high-level resistance (> 1000-fold) within ~ 3 weeks. […] We therefore investigated the growth kinetics of the NL4-3-based replication competent Q577 point mutants and the polyclonal viral pools (W1 and W2) and compared them to that of the native virus (clonal NL4-3, WT).

Q577R HIV-1 = conditions: other studied HIV-1 strains; cited from earlier work
Description: (§2) Q577R has also been identified in viral resistance screens against other HIV-1 entry inhibitors that target the prehairpin intermediate. Against N-trimer peptides N44, N36, and IZN36, the C-peptide T2635, and the retrocyclin RC-101, Q577R is found in some or all of the resistant viruses and always accompanied by other gp41 mutation(s). By itself, Q577R provided only modest resistance to the N-trimer and C-peptide inhibitors (< threefold). Viral escape from a recently identified adnectin, 6200_A08, which similarly targets the gp41 hydrophobic pocket, ...

[5] = system: Q577R in patient pre-treatment env; conditions: patient's pre-treatment env; cited from earlier work
Description: as §2

Row | Compound | weakening of the interaction [1] | weakening of the interaction (binding energy) [1] [kcal/mol] | Fold Difference ([2]; IC50 Q577R vs. WT) | C-peptide inhibition of Q577R compared to WT pseudoviruses [2] | impact of enfuvirtide resistance mutations [3] | IC50 [4] [nM] | IC50 ([2]; HXB2 Env Q577R pseudotyped HIV-1, luciferase reporter, HOS-LES cells, six fivefold dilutions in quadruplicate, average of two experiments (SD)) [nM] | emergence of gp41 resistance mutations (HIV-1) | level of resistance on passaging (HIV-1 strain NL4-3) [fold] | time to high-level resistance (HIV-1 strain NL4-3) | effect of Q577R on sensitivity (Q577R HIV-1) | resistance provided by Q577R [5] [fold]
1 | CC(=O)N[C@H](Cc1c[nH]cn1)C(=O)N1CCC[C@@H]1C(=O)N[C@@H]1CSSC[C@H](C(=O)N[C@H](CCC(=O)O)C(=O)N[C@H](CC(C)C)C(=O)NCC(=O)N[C@H](CCCCN)C(N)=O)NC(=O)[C@@H](CC(C)C)NC(=O)[C@@H](Cc2c[nH]c3ccccc23)NC(=O)[C@@H](CCC(N)=O)NC(=O)[C@@H](Cc2c[nH]c3ccccc23)NC(=O)[C@@H](CCC(=O)O)NC(=O)[C@H]2CCCN2C(=O)[C@@H](Cc2ccc(O)cc2)NC(=O)[C@@H](CC(=O)O)NC1=O [PIE12] | ~ 65 fold | 2.5 | – | – | – | – | – | – | – | – | – | –
2 | CC[C@H](C)[C@H](NC(=O)[C@H](CCC(N)=O)NC(=O)[C@H](C)NC(=O)[C@H](CCC(N)=O)NC(=O)[C@H](CCC(=O)O)NC(=O)[C@H](CC(C)C)NC(=O)[C@H](CC(C)C)NC(=O)[C@H](C)NC(=O)[C@@H](NC(=O)[C@@H](NC(=O)[C@H](CCCCN)NC(=O)[C@H](CCC(N)=O)NC(=O)[C@H](CCC(=O)O)NC(=O)[C@H](Cc1c[nH]c2ccccc12)NC(=O)[C@H](CCC(=O)O)NC(=O)[C@H](CCC(N)=O)NC(=O)[C@H](Cc1c[nH]c2ccccc12)NC(C)=O)[C@@H](C)CC)[C@@H](C)O)C(=O)N[C@@H](CCC(N)=O)C(=O)N[C@@H](CCC(N)=O)C(=O)N[C@@H](CCC(=O)O)C(=O)N[C@@H](CCCCN)C(=O)N[C@@H](CC(N)=O)C(=O)N[C@@H](CCC(=O)O)C(=O)N[C@@H](Cc1ccc(O)cc1)C(=O)N[C@@H](CCC(=O)O)C(=O)N[C@@H](CC(C)C)C(=O)N[C@@H](CCC(N)=O)C(=O)N[C@@H](CCCCN)C(=O)N[C@@H](CC(C)C)C(=O)N[C@@H](CC(=O)O)C(=O)N[C@@H](CCCCN)C(=O)N[C@@H](Cc1c[nH]c2ccccc12)C(=O)N[C@@H](C)C(=O)N[C@@H](CO)C(=O)N[C@@H](CC(C)C)C(=O)N[C@@H](Cc1c[nH]c2ccccc12)C(=O)N[C@@H](CCC(=O)O)C(=O)N[C@@H](Cc1c[nH]c2ccccc12)C(=O)N[C@@H](Cc1ccccc1)C(N)=O [T1249] | – | – | 1.2 | only modest differences | much less impacted by enfuvirtide resistance mutations | – | – | – | – | – | – | –
3 | enfuvirtide | – | – | – | only modest differences | – | 1.62 | 5.33 | rapid emergence of gp41 resistance mutations | > 1000 | ~ 3 weeks | minimally affected by Q577R | 25
